Data taken from ChEMBL document CHEMBL1155684, “Preparation, stereochemistry, and cytotoxic activity of the melampolides from Mikania minima” (J Nat Prod, 2000).

Key:
Type in all cases: functional, cell-based
A549 = assay: Cytotoxicity against human A549 cells
HT-29 = assay: Cytotoxicity against human HT29 cells
P388 = assay: Cytotoxicity against mouse P388 cells

C=C1C(=O)O[C@@H]2/C=C(\COC(C)=O)CC/C=C(/C=O)C[C@H](OC(C)=O)[C@@H]12
IC50 (A549): 2800 nM | IC50 (HT-29): 2800 nM | IC50 (P388): 1400 nM

C=C1C(=O)O[C@@H]2/C=C(\COC(C)=O)CC/C=C(/CO)C[C@H](OC(C)=O)[C@@H]12
IC50 (A549): 5500 nM | IC50 (P388): 2700 nM
